We go through 26 compounds from US20090048295A1, “SUBSTITUTED 5,6,7,8-TETRAHYDROQUINOLINE DERIVATIVES, COMPOSITIONS, AND METHODS OF USE THEREOF” (priority 2007, published 2009).

For test [1], the target named is T1, C5a receptor (Homo sapiens, UniProt P21730).
T1 sequence (P21730 1-350): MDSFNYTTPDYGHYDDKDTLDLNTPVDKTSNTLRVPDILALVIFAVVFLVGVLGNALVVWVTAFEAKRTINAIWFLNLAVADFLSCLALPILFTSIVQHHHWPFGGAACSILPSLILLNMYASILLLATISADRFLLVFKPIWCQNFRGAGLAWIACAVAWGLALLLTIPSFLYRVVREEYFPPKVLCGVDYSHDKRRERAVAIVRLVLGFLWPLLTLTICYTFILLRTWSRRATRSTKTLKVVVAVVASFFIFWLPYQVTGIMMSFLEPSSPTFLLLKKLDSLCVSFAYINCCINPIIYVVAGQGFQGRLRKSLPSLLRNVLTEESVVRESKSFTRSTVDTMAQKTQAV
The test can be described thus: Calcium Mobilization Assay (C5a-induced Ca2+ mobilization, FLIPR, differentiated U937 cells). The format is cell-based. Set-up: endogenous in cells; host or cells: U937 cells differentiated with dibutyryl cAMP. Conditions: […] recombinant human C5a, 20 min pre-incubation, multiple values = duplicate experiments, read-out: C5a Induced Ca Mobil. Average IC50. The method, boiled down:
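Differentiated U937 cells (1 mM dibutyryl cAMP, 2–3 days) loaded with Fluo-3AM, pre-incubated with compound 20 min at room temperature (1% DMSO), then stimulated with 1.5 nM recombinant human C5a. Intracellular Ca2+ fluorescence recorded on FLIPR each second to 2 min post-addition; maximal fluorescence used.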
Background: Calcium assays in cells follow changes in intracellular calcium, usually with a dye or a luminescent sensor.

For test [2], the target named is T1, C5a receptor. As to the kind of experiment: [125I]-C5a Radioligand Binding Assay (competition binding, differentiated U937 cells).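 For all read-outs here: cells preincubated with compound 30 min at room temperature, then 60 min at 4 °C with radioligand, bound counts read by scintillation, nonspecific binding defined with 100 nM C5a.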 Conditions: [125I]-C5a 0.05 nM, U937 cells, multiple values = duplicate experiments; for inhibition at 1 µM: read-out: [125I]-C5a Binding % Inhibition 1 μM, test compound 1 μM; for inhibition at 10 µM: read-out: [125I]-C5a Binding % Inhibition 10 μM, test compound 10 μM; for [125I]-C5a Binding % Inhibition 1 μM: test compound 1 μM; for [125I]-C5a Binding % Inhibition 10 μM: test compound 10 μM.
Procedure: (§1) Competition binding assays for C5a receptors were performed by incubation of differentiated U937 cells (200,000 cells/well), test compound (1% DMSO) and [^125I]-C5a (Bolton & Hunter labeled, Perkin Elmer, specific activity=2200 Ci/mmol, 0.05 nM final) in binding buffer consisting of 50 mM HEPES, 5 mM MgCl2, 1 mM CaCl2, 0.5% protease-free BSA, 0.02% NaN3, pH 7.4. 100× solutions of test compounds were prepared in DMSO and further diluted in binding buffer. Non-specific binding was defined in wells containing 100 nM recombinant C5a. Cells and compound were pre-incubated for 30 min at RT. After addition of the radioligand, further incubation for 60 min occurred at 4° C. Cells were harvested on GF/B filters—presoaked in 0.5% polyethylenimine, followed by washing with binding buffer containing 500 mM NaCl, pH 7.4. Filter bound radioactivity was determined by liquid scintillation counting. IC50 and Ki values were calculated using non-linear regression in Graphpad Prism. Ki is calculated using the equation of Cheng and Prusoff (Biochem. Pharmacol. 1973, 22: 3099-3108)

In test [3] the target is T1, C5a receptor. As to the kind of experiment: biochemical.
Procedure: as §1
Test [4] deals with T1, C5a receptor.
Procedure: as §1

“And” between values parts separate entries of the source, which are not always exact repeats. Equal values may be shown once. Read-outs that look alike come from different tables or passages of the source.

On to `CCN(c1cccc2ccccc12)C1CCCc2nc(-c3c(OC)cccc3OC)cc(OC)c21` (stereo not drawn) [Compound 58], for which the IC50 (as a rule, the concentration that inhibits the measured activity by half) in test [1] worked out at 1770 nM. Also, in test [2], the inhibition (usually the percentage by which the read-out fell short of the control) at 1 µM was found to be 59%, the inhibition at 10 µM was 83%, the “[125I]-C5a Binding % Inhibition 1 μM” value turned out to be 46% and the “[125I]-C5a Binding % Inhibition 10 μM” value was 88%. In addition, affinity in test [3] was put at a Ki of 1160 nM.

For `CCc1cccc(CC)c1-c1cc(OC)c2c([n+]1[O-])CCCC2N(CC)c1cccc2ccccc12` (racemic) [Compound 19, (±)-[2-(2,6-Diethyl-phenyl)-4-methoxy-1-oxy-5,6,7,8-tetrahydro-quinolin-5-yl]-ethyl-naphthlen-1-yl-amine], in test [1], the IC50 turned out to be 161 nM. Also, in test [2], the inhibition at 1 µM is 81%, the inhibition at 10 µM was found to be 86%, the “[125I]-C5a Binding % Inhibition 1 μM” value is 82% and the “[125I]-C5a Binding % Inhibition 10 μM” value was found to be 98%. In addition, the Ki (as a rule, a measure of affinity in units of concentration, obtained from inhibition or displacement) in test [3] was 106 nM.

As for `CCc1cccc(CC)c1-c1cc(OC)c2c(n1)CCCC2N1Cc2ccccc2C1` (stereo not drawn) [Compound 89], the IC50 in test [1] is above 10000 nM. Also, in test [2], the inhibition at 10 µM came out at 75%; the “[125I]-C5a Binding % Inhibition 1 μM” value is 71% and 37%; the “[125I]-C5a Binding % Inhibition 10 μM” value stood at 77%. Besides, affinity in test [3] was put at a Ki of 1700 nM.

In the case of `CCc1cccc(CC)c1-c1cc(OC)c2c(n1)CCCC2Nc1ccc(Cl)cc1CO` (stereo not drawn) [Compound 9], the Ki in test [4] was 13 nM. In addition, the IC50 in test [1] was determined as 71 nM. For the same compound, in test [2], the inhibition at 1 µM turned out to be 91% and the inhibition at 10 µM was 97%.

`CCc1cccc(CC)c1-c1ccc2c(n1)CCCC2N(CC)c1cccc2ccccc12` (racemic) [Compound 109, (±)-[2-(2,6-Diethyl-phenyl)-5,6,7,8-tetrahydro-quinolin-5-yl]-ethyl-naphthlen-1-yl-amine]: in test [1], the IC50 is above 10000 nM. For the same compound, in test [2], the inhibition at 10 µM was 83%; the “[125I]-C5a Binding % Inhibition 1 μM” value is 65% and 43%; the “[125I]-C5a Binding % Inhibition 10 μM” value amounted to 78%. In addition, the affinity in test [3] corresponds to a Ki of 1060 nM.

In test [4], `CCc1cccc(CC)c1-c1cc(OC)c2c(n1)CCCC2N1CCc2ccccc2C1` (stereo not drawn) [Compound 31] returned a Ki of 35 nM. Besides, in test [2], the inhibition at 10 µM amounted to 87%; the “[125I]-C5a Binding % Inhibition 1 μM” value is 77% and 94% and 96% and 69%; the “[125I]-C5a Binding % Inhibition 10 μM” value is 101% and 100% and 83%.

Take `CCc1cccc(CC)c1-c1cc(OC)c2c(n1)CCCC2N(CC)Cc1ccccc1` (stereo not drawn) [Compound 85]: the IC50 in test [1] was above 10000 nM. Also, in test [2], the inhibition at 1 µM came to 56%, the inhibition at 10 µM stood at 75%, the “[125I]-C5a Binding % Inhibition 1 μM” value is 49% and the “[125I]-C5a Binding % Inhibition 10 μM” value is given as 79%. The same compound had a Ki in test [3] of 963 nM.

Take `CCc1cccc(CC)c1-c1cc(OC)c2c(n1)CCCC2N(C)c1ccccc1` (stereo not drawn) [Compound 82]: the Ki in test [4] came out at 678 nM. For the same compound, the IC50 in test [1] came to 7940 nM. In test [2], the inhibition at 1 µM is 66%, the inhibition at 10 µM came to 81%, the “[125I]-C5a Binding % Inhibition 1 μM” value amounted to 55% and the “[125I]-C5a Binding % Inhibition 10 μM” value came out at 76%.

In turn, `CCN(c1cccc2ccccc12)C1CCCc2nc(-c3ccccc3)cc(OC)c21` (stereo not drawn) [Compound 133] yielded a Ki in test [4] of 8290 nM.

In test [4], `CCc1cccc(CC)c1-c1cc(Cl)c2c(n1)CCCC2N(CC)c1cccc2ccccc12` (stereo not drawn) [Compound 60] yielded an inhibition constant (Ki) of 179 nM. Further, the IC50 in test [1] stood at 1970 nM. In addition, in test [2], the inhibition at 10 µM is 83% and the “[125I]-C5a Binding % Inhibition 10 μM” value is given as 85%.

In the case of `CCc1cccc(CC)c1-c1cc(OC)c2c(n1)CCCC2Nc1cc(OC)ccc1C` (stereo not drawn) [Compound 11], the Ki in test [4] is 10 nM. Moreover, in test [2], the inhibition at 1 µM is 88%, the inhibition at 10 µM is 92%, the “[125I]-C5a Binding % Inhibition 1 μM” value is given as 96% and the “[125I]-C5a Binding % Inhibition 10 μM” value is 97%.

As to `CCN(c1cccc2ccccc12)C1CCCc2nc(-c3cccc4ccccc34)cc(OC)c21` (stereo not drawn) [Compound 78], in test [4], the affinity, expressed as Ki, was 368 nM. In addition, the IC50 in test [1] worked out at 5860 nM. Also, in test [2], the inhibition at 1 µM was 71%, the inhibition at 10 µM worked out at 85%, the “[125I]-C5a Binding % Inhibition 1 μM” value came to 72% and the “[125I]-C5a Binding % Inhibition 10 μM” value is listed as 95%.

`CCc1cccc(CC)c1-c1cc(OC)c2c(n1)CCCC2N1CCc2cccc(C(F)(F)F)c2C1` (stereo not drawn) [Compound 26] yielded a Ki in test [4] of 9.7 nM. The IC50 in test [1] turned out to be 266 nM. In test [2], the inhibition at 1 µM worked out at 93%, the inhibition at 10 µM amounted to 94%, the “[125I]-C5a Binding % Inhibition 1 μM” value turned out to be 96% and the “[125I]-C5a Binding % Inhibition 10 μM” value was determined as 99%.

With `CCc1ccccc1-c1cc(OC)c2c(n1)CCCC2N(CC)c1cccc2ccccc12` (racemic) [Compound 39, (±)-Ethyl-[2-(2-ethyl-phenyl)-4-methoxy-5,6,7,8-tetrahydro-quinolin-5-yl]-naphthlen-1-yl-amine], the IC50 in test [1] worked out at 647 nM. In test [2], the inhibition at 1 µM was determined as 81%, the inhibition at 10 µM came to 87%, the “[125I]-C5a Binding % Inhibition 1 μM” value came to 90% and the “[125I]-C5a Binding % Inhibition 10 μM” value was 98%. The compound also yielded a Ki in test [3] of 86 nM.

For `CCc1cccc(CC)c1-c1cc(OC)c2c(n1)CCCC2N(C)c1cccc2ccccc12` (racemic) [Compound 20, (±)-[2-(2,6-Diethyl-phenyl)-4-methoxy-5,6,7,8-tetrahydro-quinolin-5-yl]-methyl-naphthlen-1-yl-amine], the IC50 in test [1] turned out to be 165 nM. Also, in test [2], the inhibition at 1 µM was determined as 84%; the inhibition at 10 µM is 93%; the “[125I]-C5a Binding % Inhibition 1 μM” value is on record as 99%; the “[125I]-C5a Binding % Inhibition 10 μM” value was 102% and 100%. The affinity in test [3], expressed as Ki, was 7.3 nM.

For the compound `CCc1cccc(CC)c1-c1cc(OC)c2c(n1)CCCC2N(C)C1Cc2ccccc2C1` (stereo not drawn) [Compound 95], the concentration for half-maximal inhibition (IC50) in test [1] is above 10000 nM. In addition, in test [2], the inhibition at 10 µM is 68%; the “[125I]-C5a Binding % Inhibition 1 μM” value was 45% and 24%; the “[125I]-C5a Binding % Inhibition 10 μM” value stood at 80%. The compound also yielded an inhibition constant (Ki) in test [3] of 2060 nM.

In the case of `CCc1cccc(CC)c1-c1cc(OC)c2c(n1)CCC[C@@H]2N(C)[C@@H]1CCCc2ccccc21` [Compound 59], the affinity in test [4] corresponds to a Ki of 57 nM. Further, the IC50 in test [1] stood at 1900 nM. Further, in test [2], the “[125I]-C5a Binding % Inhibition 1 μM” value came out at 91% and the “[125I]-C5a Binding % Inhibition 10 μM” value came to 89%.

For the compound `CCc1cccc(CC)c1-c1cc(OC)c2c(n1)CCCC2Oc1cc(OC)ccc1C` (stereo not drawn) [Compound 29], the IC50 in test [1] turned out to be 338 nM. For the same compound, in test [2], the inhibition at 1 µM stood at 88% and the inhibition at 10 µM came to 89%.

On to `CCc1cccc(CC)c1-c1cc(OC)c2c(n1)CCCC2OCc1ccccc1` (stereo not drawn) [Compound 86], for which the IC50 in test [1] was above 10000 nM. Besides, in test [2], the inhibition at 1 µM came out at 49% and the inhibition at 10 µM came to 64%.

Regarding `CCc1cccc(CC)c1-c1cc(OC)c2c(n1)CCCC2Nc1cc(OC)ccc1Cl` (stereo not drawn) [Compound 32], the IC50 in test [1] was determined as 380 nM. In addition, in test [2], the inhibition at 1 µM stood at 88% and the inhibition at 10 µM is 91%.

With `CCc1cccc(CC)c1-c1cc(OC)c2c(n1)CCCC2N(C)CCCc1ccccc1` (stereo not drawn) [Compound 91], the IC50 in test [1] is above 10000 nM. For the same compound, in test [2], the “[125I]-C5a Binding % Inhibition 1 μM” value came to 20% and the “[125I]-C5a Binding % Inhibition 10 μM” value came to 60%.

As for `CCc1cccc(CC)c1-c1cc(OC)c2c(n1)CCCC2Nc1cccc(OC)c1` (stereo not drawn) [Compound 81], in test [1], the IC50 came to 7410 nM. Also, in test [2], the inhibition at 1 µM was found to be 55% and the inhibition at 10 µM amounted to 71%.

`CCN(c1cccc2ccccc12)C1CCCc2nc(-c3ccccc3F)cc(OC)c21` (stereo not drawn) [Compound 73] registered a Ki in test [4] of 3690 nM. The half-inhibitory concentration (IC50) in test [1] worked out at 4590 nM. In addition, in test [2], the inhibition at 10 µM was found to be 80%; the “[125I]-C5a Binding % Inhibition 1 μM” value is 55% and 34%; the “[125I]-C5a Binding % Inhibition 10 μM” value worked out at 70%.

For `CCc1cccc(CC)c1-c1cc(OC)c2c(n1)CCCC2N1CCc2ccc(F)cc2C1` (stereo not drawn) [Compound 45], in test [1], the IC50 was determined as 878 nM. In test [2], the inhibition at 1 µM was found to be 74% and the inhibition at 10 µM stood at 87%.

As to `CCc1cccc(CC)c1-c1cc(OC)c2c(n1)CCCC2N(C)c1ccc(OC)c2ccccc12` (stereo not drawn) [Compound 36], the IC50 in test [1] came out at 531 nM. For the same compound, in test [2], the inhibition at 1 µM came out at 86% and the inhibition at 10 µM stood at 87%.

On to `CCc1cccc(CC)c1-c1cc(OC)c2c(n1)CCCC2N(C)c1cc(C)ccc1C` (stereo not drawn) [Compound 40], for which, in test [1], the IC50 stood at 687 nM. For the same compound, in test [2], the inhibition at 1 µM was determined as 88% and the inhibition at 10 µM is 88%.
